Results: ChEMBL document CHEMBL2010689 (J Med Chem, 2012)
Activity calls are given as the source filed them. The rule behind the calls is not given here.

Assays:
[1] = system: P388; assay: Antitumor activity against mouse P388 cells xenografted in DBA/2 mouse assessed as mean survival at 30 mg/kg, po qd for 14 days followed by readministeration after 7 days; assay type: functional
[2] = system: P388; assay: Antitumor activity against mouse P388 cells xenografted in DBA/2 mouse assessed as mean survival at 30 mg/kg, po qd (reference value: 14 days); assay type: functional
[3] = Antiangiogenic activity in HMVEC assessed as inhibition of FGF-induced survival; assay type: functional, Homo sapiens
[4] = Inhibition of MKK at 1 uM
[5] = biological target: Tyrosine-protein kinase BTK (Homo sapiens, UniProt Q06187); assay: Inhibition of human BTK using ATP as substrate
[6] = biological target: Fibroblast growth factor receptor 3 (Homo sapiens, UniProt P22607); assay: Inhibition of human FGFR3 using ATP as substrate
[7] = system: P388; assay: Antitumor activity against mouse P388 cells xenografted in DBA/2 mouse assessed as mean survival at 30 mg/kg, po bid (reference value: 14 days); assay type: functional
[8] = system: Mus musculus; assay: Toxicity in athymic nude mouse bearing human A375 cells assessed as body weight change at 0.1 to 10 mg/kg, po; assay type: organism-based, A-375; parameters: dose 0.1-10 mg/kg, route oral; conditions: in vivo
[9] = Volume of distribution in cynomolgus monkey at 0.5 mg/kg, iv; assay type: ADME, organism-based, Macaca fascicularis; parameters: dose 0.5 mg/kg, route intravenous; conditions: in vivo
[10] = Metabolic stability in human liver S9 fraction assessed as compound remaining after 2 hrs; assay type: ADME, subcellular; conditions: read-out: Stability
[11] = Antiangiogenic activity in HMVEC assessed as inhibition of VEGF-induced proliferation; assay type: functional; conditions: Homo sapiens
[12] = Antiangiogenic activity in HMVEC assessed as inhibition of VEGF-induced migration; assay type: functional; conditions: Homo sapiens
[13] = Antiangiogenic activity in BAEC assessed as inhibition of VEGF-induced migration; assay type: functional; conditions: Bos taurus
[14] = system: A-375; assay: Antitumor activity against human A375 cells xenografted in po dosed athymic nude mouse assessed as tumor growth inhibition bid measured on day 29 relative to control; assay type: functional; conditions: A-375, po, 696 h, read-out: MED
[15] = biological target: Tyrosine-protein kinase JAK2 (Homo sapiens) (UniProt O60674); assay: Inhibition of JAK2 at 1 uM
[16] = Clearance in Sprague-Dawley rat at 0.8 mg/kg, iv; assay type: ADME, organism-based; parameters: dose 0.8 mg/kg, route intravenous; conditions: in vivo
[17] = Plasma protein binding in human; assay type: ADME, cell-free; conditions: read-out: PPB (converted)
[18] = system: A-375; assay: Antitumor activity against human A375 cells xenografted in athymic nude mouse assessed as tumor growth inhibition at 10 mg/kg, po bid measured on day 29 relative to control; assay type: functional; conditions: A-375, 696 h, read-out: GI
[19] = Antitumor activity against human U251MG cells xenografted in athymic nude mouse assessed as complete tumor regression at 30 mg/kg, po bid; assay type: functional, U-251
[20] = Antitumor activity against human U251MG cells xenografted in athymic nude mouse assessed as complete tumor regression at 10 mg/kg, po bid; assay type: functional, U-251
[21] = Toxicity in dog purkinje fibres assessed as drug-induced change in action potential; assay type: tissue-based, Canis lupus familiaris, Purkinje fiber
[22] = system: HUVEC; assay: Antiangiogenic activity in HUVEC assessed as inhibition of capillary-tube formation by matrigel assay; assay type: functional, cell-based; conditions: Homo sapiens
[23] = Apparent permeability across human Caco2 cells; assay type: ADME, cell-based; conditions: Caco-2
[24] = system: HUVEC; assay: Antiangiogenic activity in HUVEC assessed as inhibition of VEGF-induced survival; assay type: functional, cell-based; conditions: Homo sapiens
[25] = Tmax in Sprague-Dawley rat at 5 mg/kg, po; assay type: ADME, organism-based; parameters: dose 5 mg/kg, route oral; conditions: in vivo
[26] = Cmax in Sprague-Dawley rat at 5 mg/kg, po; assay type: ADME, organism-based; parameters: dose 5 mg/kg, route oral; conditions: in vivo
[27] = system: A-375; assay: Antitumor activity against human A375 cells xenografted in athymic nude mouse assessed as complete tumor regression at 1 mg/kg, po bid; assay type: functional
[28] = biological target: Cytochrome P450 2D6 (Homo sapiens, UniProt P10635); assay: Inhibition of CYP2D6; assay type: ADME
[29] = Antitumor activity against human U251MG cells xenografted in athymic nude mouse assessed as partial tumor regression at 30 mg/kg, po bid; assay type: functional, U-251
[30] = biological target: Casein kinase I isoform alpha (Homo sapiens, UniProt P48729); assay: Inhibition of CK1 using ATP as substrate
[31] = Metabolic stability in dog liver S9 fraction assessed as compound remaining after 2 hrs; assay type: ADME, subcellular, Canis lupus familiaris; conditions: read-out: Stability
[32] = biological target: Proto-oncogene tyrosine-protein kinase Src (Homo sapiens, UniProt P12931); assay: Inhibition of human cSrc using ATP as substrate
[33] = system: A-375; assay: Antitumor activity against human A375 cells xenografted in athymic nude mouse assessed as tumor growth inhibition at 0.3 mg/kg, po bid measured on day 29 relative to control; assay type: functional; conditions: A-375, 696 h, read-out: GI
[34] = biological target: Hepatocyte growth factor receptor (Homo sapiens) (UniProt P08581); assay: Inhibition of cMET at 1 uM
[35] = biological target: Adenosine receptor A3 (Homo sapiens) (UniProt P0DMS8); assay: Inhibition of adenosine A3 receptor at 10 uM
[36] = system: Mus musculus; assay: Toxicity in athymic nude mouse bearing human U251MG cells assessed as apparent toxicity at 1 to 30 mg/kg, po; assay type: organism-based, U-251; parameters: dose 1-30 mg/kg, route oral; conditions: in vivo
[37] = biological target: Proto-oncogene tyrosine-protein kinase receptor Ret (Homo sapiens, UniProt P07949); assay: Inhibition of human RET using ATP as substrate
[38] = Cmax in athymic nude mouse tumor xenografted with human A375 cells at 10 mg/kg, po
[39] = Antitumor activity against human U251MG cells xenografted in athymic nude mouse assessed as complete tumor regression at 1 mg/kg, po bid; assay type: functional, U-251
[40] = biological target: Fibroblast growth factor receptor 1 (Homo sapiens, UniProt P11362); assay: Inhibition of human FGFR1 using ATP as substrate
[41] = system: Mus musculus; assay: Toxicity in athymic nude mouse bearing human U251MG cells assessed as body weight change at 1 to 30 mg/kg, po; assay type: organism-based, U-251; parameters: dose 1-30 mg/kg, route oral; conditions: in vivo
[42] = biological target: Vascular endothelial growth factor receptor 1 (Homo sapiens, UniProt P17948); assay: Inhibition of human VEGFR1 using ATP as substrate
[43] = Half life in Sprague-Dawley rat at 5 mg/kg, po; assay type: ADME, organism-based; parameters: dose 5 mg/kg, route oral; conditions: in vivo
[44] = biological target: Tyrosine-protein kinase Blk (Mus musculus, UniProt P16277); assay: Inhibition of mouse BLK using ATP as substrate
[45] = system: Aorta; assay: Cytotoxicity against rat aortic rings; assay type: tissue-based
[46] = biological target: Cytochrome P450 3A4 (Homo sapiens, UniProt P08684); assay: Inhibition of CYP3A4; assay type: ADME
[47] = biological target: ALK tyrosine kinase receptor (Homo sapiens, UniProt Q9UM73); assay: Inhibition of human ALK using ATP as substrate
[48] = Oral bioavailability in cynomolgus monkey at 3 mg/kg; assay type: ADME, organism-based, Macaca fascicularis; conditions: in vivo
[49] = biological target: Cytochrome P450 2C19 (Homo sapiens, UniProt P33261); assay: Inhibition of CYP2C19; assay type: ADME
[50] = biological target: High affinity nerve growth factor receptor (Homo sapiens, UniProt P04629); assay: Inhibition of human TRK-A using ATP as substrate
[51] = Cmax in athymic nude mouse tumor xenografted with human U251MG cells at 30 mg/kg, po; assay type: ADME, organism-based, Neoplasm, U-251; parameters: dose 30 mg/kg, route oral
[52] = Cmax in athymic nude mouse plasma xenografted with human U251MG cells at 30 mg/kg, po; assay type: ADME, organism-based, U-251; parameters: dose 30 mg/kg, route oral
[53] = Antiangiogenic activity in HMVEC assessed as inhibition of VEGF-induced survival; assay type: functional, Homo sapiens

Chain of Casein kinase I isoform alpha (P48729 whole entry, canonical isoform): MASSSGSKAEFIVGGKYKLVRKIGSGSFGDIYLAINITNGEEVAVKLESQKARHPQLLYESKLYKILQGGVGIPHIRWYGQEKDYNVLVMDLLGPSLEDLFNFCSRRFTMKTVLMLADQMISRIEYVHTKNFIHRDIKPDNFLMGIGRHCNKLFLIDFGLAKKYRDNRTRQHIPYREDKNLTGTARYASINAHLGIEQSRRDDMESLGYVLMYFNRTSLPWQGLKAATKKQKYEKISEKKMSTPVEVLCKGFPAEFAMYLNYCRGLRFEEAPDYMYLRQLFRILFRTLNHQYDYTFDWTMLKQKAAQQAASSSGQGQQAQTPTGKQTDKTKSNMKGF
Chain of Cytochrome P450 2D6 (P10635 whole entry): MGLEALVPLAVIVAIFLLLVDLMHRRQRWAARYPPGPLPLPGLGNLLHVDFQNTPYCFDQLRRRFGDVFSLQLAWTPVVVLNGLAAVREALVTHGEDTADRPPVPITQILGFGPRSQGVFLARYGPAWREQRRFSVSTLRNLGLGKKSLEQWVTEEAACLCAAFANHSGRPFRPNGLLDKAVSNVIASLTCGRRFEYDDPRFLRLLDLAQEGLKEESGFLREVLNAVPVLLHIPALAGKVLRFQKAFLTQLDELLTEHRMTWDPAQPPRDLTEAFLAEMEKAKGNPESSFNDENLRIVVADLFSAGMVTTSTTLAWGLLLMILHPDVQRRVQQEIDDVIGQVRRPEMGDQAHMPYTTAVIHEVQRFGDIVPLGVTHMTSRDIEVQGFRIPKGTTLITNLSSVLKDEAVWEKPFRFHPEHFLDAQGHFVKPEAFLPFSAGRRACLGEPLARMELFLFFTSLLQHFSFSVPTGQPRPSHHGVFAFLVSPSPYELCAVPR
Chain of High affinity nerve growth factor receptor (P04629 whole entry): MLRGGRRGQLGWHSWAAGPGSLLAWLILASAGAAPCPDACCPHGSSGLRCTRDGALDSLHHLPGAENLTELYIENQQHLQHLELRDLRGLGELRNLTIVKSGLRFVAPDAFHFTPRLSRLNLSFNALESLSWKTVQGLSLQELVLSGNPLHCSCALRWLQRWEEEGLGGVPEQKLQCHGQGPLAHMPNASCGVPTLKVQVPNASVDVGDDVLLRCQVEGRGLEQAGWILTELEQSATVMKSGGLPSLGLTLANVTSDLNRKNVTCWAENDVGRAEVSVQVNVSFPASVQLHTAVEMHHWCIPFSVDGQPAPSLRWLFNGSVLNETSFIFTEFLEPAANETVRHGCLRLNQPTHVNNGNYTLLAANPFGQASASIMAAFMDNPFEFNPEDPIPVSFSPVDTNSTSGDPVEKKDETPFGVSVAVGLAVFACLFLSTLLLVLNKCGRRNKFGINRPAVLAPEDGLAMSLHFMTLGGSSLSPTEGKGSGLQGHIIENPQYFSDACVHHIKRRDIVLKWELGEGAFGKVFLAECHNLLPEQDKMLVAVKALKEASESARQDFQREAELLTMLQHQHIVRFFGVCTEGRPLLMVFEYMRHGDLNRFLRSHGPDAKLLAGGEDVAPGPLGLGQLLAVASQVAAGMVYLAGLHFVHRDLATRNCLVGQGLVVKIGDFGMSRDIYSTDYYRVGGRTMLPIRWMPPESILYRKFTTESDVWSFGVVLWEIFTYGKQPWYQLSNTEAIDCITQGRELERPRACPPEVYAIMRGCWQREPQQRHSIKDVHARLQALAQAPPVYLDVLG
Chain of Tyrosine-protein kinase JAK2 (Homo sapiens) (O60674 whole entry): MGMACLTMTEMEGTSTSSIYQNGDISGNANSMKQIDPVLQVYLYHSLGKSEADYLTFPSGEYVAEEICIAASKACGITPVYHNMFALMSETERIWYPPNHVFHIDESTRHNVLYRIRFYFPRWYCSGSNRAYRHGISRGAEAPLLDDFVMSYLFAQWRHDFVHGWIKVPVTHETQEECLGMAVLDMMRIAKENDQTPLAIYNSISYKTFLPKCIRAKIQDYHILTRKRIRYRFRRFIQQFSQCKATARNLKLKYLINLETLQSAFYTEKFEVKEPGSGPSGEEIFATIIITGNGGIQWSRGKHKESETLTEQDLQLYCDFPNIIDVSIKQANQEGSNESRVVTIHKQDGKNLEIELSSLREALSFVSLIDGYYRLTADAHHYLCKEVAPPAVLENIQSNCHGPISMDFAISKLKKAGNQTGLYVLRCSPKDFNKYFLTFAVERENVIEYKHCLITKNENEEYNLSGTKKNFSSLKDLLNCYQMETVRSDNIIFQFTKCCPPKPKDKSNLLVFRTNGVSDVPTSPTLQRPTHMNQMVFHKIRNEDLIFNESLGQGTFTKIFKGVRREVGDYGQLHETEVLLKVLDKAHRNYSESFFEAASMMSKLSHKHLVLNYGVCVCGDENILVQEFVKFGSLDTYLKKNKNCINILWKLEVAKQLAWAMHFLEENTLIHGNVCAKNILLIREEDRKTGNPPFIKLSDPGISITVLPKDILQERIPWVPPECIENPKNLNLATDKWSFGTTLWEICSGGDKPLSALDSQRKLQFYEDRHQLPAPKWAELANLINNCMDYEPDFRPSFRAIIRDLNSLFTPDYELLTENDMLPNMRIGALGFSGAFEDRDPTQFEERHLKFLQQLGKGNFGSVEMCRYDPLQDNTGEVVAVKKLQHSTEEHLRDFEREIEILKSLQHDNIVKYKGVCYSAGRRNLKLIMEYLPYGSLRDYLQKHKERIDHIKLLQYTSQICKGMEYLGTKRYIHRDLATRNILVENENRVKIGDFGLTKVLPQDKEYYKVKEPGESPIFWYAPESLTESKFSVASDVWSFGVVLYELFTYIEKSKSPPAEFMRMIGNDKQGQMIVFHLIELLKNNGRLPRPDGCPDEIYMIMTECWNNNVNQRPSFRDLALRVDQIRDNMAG
Chain of Adenosine receptor A3 (Homo sapiens) (P0DMS8 whole entry): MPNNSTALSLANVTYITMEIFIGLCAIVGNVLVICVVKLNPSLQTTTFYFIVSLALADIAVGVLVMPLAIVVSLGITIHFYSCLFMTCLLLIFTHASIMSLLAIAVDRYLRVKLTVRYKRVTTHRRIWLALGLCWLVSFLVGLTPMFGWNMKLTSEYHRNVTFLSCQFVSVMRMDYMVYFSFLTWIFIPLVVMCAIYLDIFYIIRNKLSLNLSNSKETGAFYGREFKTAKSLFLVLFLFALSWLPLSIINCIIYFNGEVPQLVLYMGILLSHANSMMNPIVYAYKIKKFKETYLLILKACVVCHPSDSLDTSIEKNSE
Chain of Vascular endothelial growth factor receptor 1 (P17948 whole entry): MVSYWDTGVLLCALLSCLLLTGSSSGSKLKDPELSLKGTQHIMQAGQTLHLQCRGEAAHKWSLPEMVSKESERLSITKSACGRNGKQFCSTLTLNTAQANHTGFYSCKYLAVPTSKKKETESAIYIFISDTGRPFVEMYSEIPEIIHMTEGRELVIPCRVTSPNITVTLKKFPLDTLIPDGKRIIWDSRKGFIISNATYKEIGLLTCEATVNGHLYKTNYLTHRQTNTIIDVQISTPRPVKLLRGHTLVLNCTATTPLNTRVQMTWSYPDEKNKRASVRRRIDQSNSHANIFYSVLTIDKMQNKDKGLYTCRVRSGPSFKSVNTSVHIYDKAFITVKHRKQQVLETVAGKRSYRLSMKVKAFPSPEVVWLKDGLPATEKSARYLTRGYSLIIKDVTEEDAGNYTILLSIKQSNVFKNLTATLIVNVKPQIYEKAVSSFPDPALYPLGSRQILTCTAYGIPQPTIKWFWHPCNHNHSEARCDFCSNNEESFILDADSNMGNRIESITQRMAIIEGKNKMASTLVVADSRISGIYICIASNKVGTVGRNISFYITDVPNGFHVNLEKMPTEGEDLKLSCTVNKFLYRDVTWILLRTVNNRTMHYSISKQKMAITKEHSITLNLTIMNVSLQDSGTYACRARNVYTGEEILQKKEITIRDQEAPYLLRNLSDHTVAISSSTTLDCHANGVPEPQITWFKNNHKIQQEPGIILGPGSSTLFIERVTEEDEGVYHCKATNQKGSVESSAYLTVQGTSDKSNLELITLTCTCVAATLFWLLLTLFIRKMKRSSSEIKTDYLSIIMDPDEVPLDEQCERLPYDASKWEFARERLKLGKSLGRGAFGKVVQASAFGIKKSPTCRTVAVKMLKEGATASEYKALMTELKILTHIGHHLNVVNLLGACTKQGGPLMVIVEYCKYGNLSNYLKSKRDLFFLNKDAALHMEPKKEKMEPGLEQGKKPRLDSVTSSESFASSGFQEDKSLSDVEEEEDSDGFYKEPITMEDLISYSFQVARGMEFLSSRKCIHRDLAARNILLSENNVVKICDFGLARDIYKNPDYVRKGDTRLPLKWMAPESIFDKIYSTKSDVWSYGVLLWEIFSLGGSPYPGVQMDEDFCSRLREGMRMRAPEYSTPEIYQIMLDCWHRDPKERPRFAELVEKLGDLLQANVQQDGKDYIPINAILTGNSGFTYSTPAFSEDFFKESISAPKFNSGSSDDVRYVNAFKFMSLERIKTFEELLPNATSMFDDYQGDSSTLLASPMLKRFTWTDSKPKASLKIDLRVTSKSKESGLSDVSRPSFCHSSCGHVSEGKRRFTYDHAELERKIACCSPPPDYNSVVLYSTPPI
Chain of Cytochrome P450 3A4 (P08684 whole entry): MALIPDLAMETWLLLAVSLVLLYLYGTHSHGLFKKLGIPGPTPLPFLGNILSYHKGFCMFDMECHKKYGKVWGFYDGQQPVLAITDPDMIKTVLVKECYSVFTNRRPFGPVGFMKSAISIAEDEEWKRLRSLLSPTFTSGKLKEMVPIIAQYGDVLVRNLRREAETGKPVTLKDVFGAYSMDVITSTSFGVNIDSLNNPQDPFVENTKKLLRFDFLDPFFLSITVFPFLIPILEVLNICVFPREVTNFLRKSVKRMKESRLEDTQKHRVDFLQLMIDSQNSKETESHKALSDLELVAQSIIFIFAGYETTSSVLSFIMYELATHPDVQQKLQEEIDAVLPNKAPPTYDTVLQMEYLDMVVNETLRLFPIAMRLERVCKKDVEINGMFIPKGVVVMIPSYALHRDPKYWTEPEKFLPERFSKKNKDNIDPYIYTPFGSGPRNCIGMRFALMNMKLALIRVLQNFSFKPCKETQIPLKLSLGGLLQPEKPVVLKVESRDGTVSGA

**Q.** Which MSD [1] does the source give for `CC(C)Cn1c2ccc(Nc3ncccn3)cc2c2c3c(c4c(c21)CCc1nn(C)cc1-4)C(=O)NC3` [CEP-11981] here?
**A.** 23.5 days

**Q.** What about the MSD [2] of the same compound?
**A.** 23 days

**Q.** And the EC50 [3]?
**A.** 8 nM

**Q.** And the inhibition [4]?
**A.** Active

**Q.** What about the IC50 [5] of the same compound?
**A.** 93 nM

**Q.** And the IC50 [6]?
**A.** 89 nM

**Q.** What about the MSD [7] of the same compound?
**A.** 27.5 days

**Q.** And the Activity [8]?
**A.** Non-toxic

**Q.** What about the Vd [9] of the same compound?
**A.** 2.6 L/kg

**Q.** And the remaining at 2 h [10]?
**A.** 79%

**Q.** What about the EC50 [11] of the same compound?
**A.** 8 nM

**Q.** What about the EC50 [12] of the same compound?
**A.** 8 nM

**Q.** And the EC50 [13]?
**A.** 8 nM

**Q.** And the minimal effective dose [14]?
**A.** 0.3 mg/kg

**Q.** And the inhibition [15]?
**A.** Active

**Q.** And the clearance [16]?
**A.** 4.3 mL/min/kg

**Q.** What about the fraction unbound [17] of the same compound?
**A.** 0.05

**Q.** And the inhibition in vivo at 10 mg/kg [18]?
**A.** 98%

**Q.** What about the Activity [19] of the same compound?
**A.** 0%

**Q.** And the Activity [20]?
**A.** 0%

**Q.** And the Activity [21]?
**A.** Non-toxic

**Q.** And the EC50 [22]?
**A.** 2 nM

**Q.** What about the Papp [23] of the same compound?
**A.** > 4 ×10⁻⁶ cm/s

**Q.** What about the EC50 [24] of the same compound?
**A.** 8 nM

**Q.** And the Tmax [25]?
**A.** 2 h

**Q.** And the Cmax [26]?
**A.** 1330 ng/mL

**Q.** What about the Activity [27] of the same compound?
**A.** 20%

**Q.** What about the IC50 [28] of the same compound?
**A.** > 30000 nM

**Q.** What about the Activity [29] of the same compound?
**A.** 44%

**Q.** What about the IC50 [30] of the same compound?
**A.** 48 nM

**Q.** What about the remaining at 2 h [31] of the same compound?
**A.** 65%

**Q.** What about the IC50 [32] of the same compound?
**A.** 37 nM

**Q.** What about the inhibition in vivo at 0.3 mg/kg [33] of the same compound?
**A.** 71%

**Q.** And the inhibition [34]?
**A.** Active

**Q.** And the inhibition [35]?
**A.** > 80%

**Q.** What about the Activity [36] of the same compound?
**A.** Non-toxic

**Q.** And the IC50 [37]?
**A.** 5 nM

**Q.** And the Cmax [38]?
**A.** 140 ng/g

**Q.** What about the Activity [39] of the same compound?
**A.** 0%

**Q.** And the IC50 [40]?
**A.** 13 nM

**Q.** And the Activity [41]?
**A.** Non-toxic

**Q.** And the IC50 [42]?
**A.** 3 nM

**Q.** What about the half-life [43] of the same compound?
**A.** 3 h

**Q.** What about the IC50 [44] of the same compound?
**A.** 8 nM

**Q.** And the Activity [45]?
**A.** Non-toxic

**Q.** What about the IC50 [46] of the same compound?
**A.** > 30000 nM

**Q.** And the IC50 [47]?
**A.** 132 nM

**Q.** And the bioavailability [48]?
**A.** 93%

**Q.** What about the IC50 [49] of the same compound?
**A.** 9000 nM

**Q.** And the IC50 [50]?
**A.** 3 nM

**Q.** And the Cmax [51]?
**A.** 401 ng/g

**Q.** What about the Cmax [52] of the same compound?
**A.** 1200 ng/mL

**Q.** What about the EC50 [53] of the same compound?
**A.** 8 nM
